Patent US20200289521A1, “USE OF VITAMIN K IN COMBINATION WITH ANTICOAGULANTS” (KAYDENCE PHARMA AS, priority 2019, published 2020)

Assays:
VSMCs [1] = experiment: Oxidative stress in VSMCs (DCFDA to DCF fluorescence); type: cell-based; conditions: 10 μM, fluorescence measured for 6 hours
Experimental: (§1) It is known that the level of reactive oxygen species in cells can be measured by measuring the conversion of 2′,7′-dichlorofluorescein diacetate (DCFDA) to the fluorescent dye 2′,7′-dichlorofluorescein (DCF). The fluorescence generated by cells subjected to DCFDA is directly proportional to the amount of oxidized DCFDA to DCF.
To perform the study, VSMCs (10,000 cells/well) were plated in a 96-well plate and left to adhere overnight. Next, cells were incubated for 1 hour with 20 μM DCFDA. The medium was then changed to medium supplemented with 10 μM vitamin K2 (MK-7). To visualize intracellular oxidative stress, fluorescence was measured for 6 hours and fluorescence intensity was normalized for cell count.

[2] = system: whole-blood thrombogenicity; experiment: T-TAS Total Thrombus-formation Analysis of whole blood from treated Sprague-Dawley rats; type: in vivo
Experimental: This experiment was conducted in order to evaluate the effects of vitamin K2 (MK-7) on the anticoagulant activity of the new oral anticoagulants (NOAC) rivaroxaban and dabigatran using the T-TAS Total Thrombus-formation Analysis System. The T-TAS Total Thrombus-formation Analysis System is a microchip-based flow chamber system capable of evaluating whole-blood thrombogenicity. It is a useful tool in monitoring the efficacy of anticoagulants on thrombus formation and predicting the risk of bleeding complications. To perform the study, 45 wild-type male Sprague-Dawley and 45 transgenic male Ren-2 rats [TGR(mREN-2)27] at the age of 10-11 weeks at the beginning of the treatment period were purchased from animal facility IKEM-CEM Institute of Clinical and Experimental Medicine (Prague, Czech Republic). All animals in the experiment were housed in individually ventilated cages (2-3 rats per cage) and kept in the animal rooms of JCET at a relative humidity of 55±10%, a temperature of 22±2° C., and a light cycle of 7 AM to 7 PM. The rats had free access to food and water. After delivery, animals were randomly divided into 10 experimental groups (5 or 10 rats per group), as indicated below in Table 1. Four days before the start of the treatment, the first part of animals' body weight and food intake was measured in selected representative three cages (rats n=9) to calculate the appropriate amount of tested compounds required for addition to the diet to obtain the dosing indicated in Table 1. It was estimated that food intake was approximately 30 g of chow per rat per day. The animals were fed for two weeks with AIN-93G diet supplemented with rivaroxaban or dabigatran with/without Vitamin K2 (MK-7), as indicated in Table 1. The animals were then anesthetized in order to draw blood samples for further analysis. The body mass of the rats was measured at the beginning and at the end of treatment. At the beginning and at the end of treatment, the food intake per day was measured in representative group of animals to monitor the daily dosing of tested compounds (per kg of body mass). The thrombus formation in vitro was measured in whole blood using a microchip-based flow chamber system according to manufacturers' protocol (Total Thrombus-formation Analyser System, T-TAS; Fujimori Kogyo Co., Ltd., Tokyo, Japan). For the analysis, citrated whole blood (480 μl) was mixed with 20 μl of 300 mM CaCl2 solution containing 1.25 mg/ml CTI (Corn Trypsin Inhibitor). […] The obtained flow pressure pattern for each sample was used to analyze thrombus formation based on the following estimated parameters: […]

VSMCs [3] = experiment: Hypoxia-induced ATP decrease, co-treatment with CoCl2 (luminescence); type: cell-based; conditions: co-treatment CoCl2 100 μM and 10 μM test substance, 24 hours
Experimental: This study was performed to investigate whether vitamin K2 (MK-7) can prevent the hypoxia-induced decrease in ATP (CoCl2 treatment, thereby stabilization of HIF1a). To perform this study, VSMCs were co-treated with CoCl2 and vitamin K2 (MK-7).
First, VSCMs (5000 cells/well) were plated in 96-well plates and left to adhere overnight. Next, cells were incubated for 24 hours with either CoCl2 (100 μM) or CoCl2 and vitamin K2 (MK-7) or UQ10 together (100 and 10 μM, respectively). Next, ATP was measured and corrected for cell numbers. CoCl2 values were set as relative to CoCl2 co-treated with vitamin K2 (MK-7) or UQ10. Hoechst was added to correct for cell number (1 μg/mL). Next, ATP was measured using mammalian lysis buffer for 5 minutes after which 50 μL ATP substrate solution was added to the wells and incubated for 10 minutes in a dark environment. Finally, medium was transferred to a white plate to measure luminescence.

VSMCs [4] = experiment: Warfarin-induced oxidative stress in VSMCs, effect of vitamin K2 (DCFDA); type: cell-based
Experimental: as §1
This study was performed to determine if vitamin K2 (MK-7) reduces warfarin-induced oxidative stress. To perform the study, VSMCs (10,000 cells/well) were plated in a 96-well plate and left to adhere overnight. Next, cells were incubated for 24 hours with 100 μM warfarin. The next day, 20 μM DCFDA was added to the cells for 1 hour. The cells were then incubated for 5 hours with normal medium (baseline), vitamin K2 (MK-7), or warfarin. Fluorescence was measured and fluorescence intensity was normalized for cell count.

[5] = system: human vascular smooth muscle cells (hVSMCs); experiment: ATP measurement in hVSMCs with warfarin and/or vitamin K2 (luminescence); type: cell-based; conditions: 24 hours
Experimental: This study was performed in order to determine the effect of vitamin K2 (MK-7) on warfarin-induced oxidative stress in muscles. To perform this study, human vascular smooth muscle cells (hVSMCs; 5,000 cells/well) were plated in 96-well dark plates and left to adhere overnight. Next, cells were incubated for 24 hours with either vehicle only (as blank control), warfarin (10 or 50 μM), vitamin K2 (MK-7) (10 μM), or a combination of warfarin (50 μM) and vitamin K2 (MK-7) (10 μM). Hoechst was added to correct for cell number (1 μg/mL). Next, ATP was measured using mammalian lysis buffer for 5 minutes after which 50 μL ATP substrate solution was added to the wells and incubated for 10 minutes in a dark environment. Finally, medium was transferred to a white plate to measure luminescence.

Compound: CC(C)=CCC/C(C)=C/CC/C(C)=C/CC/C(C)=C/CC/C(C)=C/CC/C(C)=C/CC/C(C)=C/CC1=C(C)C(=O)c2ccccc2C1=O [vitamin K2 (MK-7)]
- oxidative stress (DCF fluorescence normalized for cell count) (VSMCs [1]): clearly reduced the oxidative stress
- increase of occlusion Time (OT) by addition of vitamin K2 (MK-7) ([2]; added to dabigatran and to rivaroxaban): 5-7%
- formation of a clot (AUC) ([2]; vitamin K2 (MK-7) added to dabigatran or rivaroxaban): did not prevent the formation of a clot
- hypoxia-induced decrease in ATP generation (VSMCs [3]): could (partially) prevent the decreased ATP generation
- normal oxidative stress (VSMCs [4]; 5 hours incubation, no warfarin): reduced not only normal oxidative stress
- warfarin-induced oxidative stress (VSMCs [4]; 24 hours 100 μM warfarin, then 5 hours incubation): counteracted the warfarin-induced oxidative stress
- cell ATP / ATP generation ([5]; warfarin 10 or 50 μM, vitamin K2 (MK-7) 10 μM): increased cell ATP
- oxidative stress induced by warfarin ([5]; warfarin 50 μM + vitamin K2 (MK-7) 10 μM): counteracted the oxidative stress induced by warfarin
